Assay results as given in ChEMBL document CHEMBL4402540, “Structure-Activity Relationship Studies of Small Molecule Modulators of the Staphylococcal Accessory Gene Regulator” (J Med Chem, 2020).
Where a SMILES comes first, the peptide text is derived from it. Bridges are numbered along the chain shown (N, C = ends).

Assays:
[1] = Inhibition of AgrC-1 in Staphylococcus aureus
[2] = Inhibition of AgrC-2 in Staphylococcus aureus
[3] = Inhibition of AgrC-3 in Staphylococcus aureus
[4] = Inhibition of AgrC-4 in Staphylococcus aureus
[5] = system: Staphylococcus aureus; test: Antibacterial activity against methicillin-resistant Staphylococcus aureus USA300 infected in CD-1 mouse MRSA sepsis model assessed as survival rate at 30 mg/kg, ip after 144 hrs (reference value: 70%); format: functional
[6] = Inhibition of AgrC-1 Staphylococcus aureus RN10829 incubated for 45 mins by beta-lactamase reporter gene assay
[7] = Inhibition of AgrC-1 in Staphylococcus aureus AH1677 incubated for 24 hrs by fluorescence assay
[8] = Inhibition of AgrC-2 in Staphylococcus aureus AH430 incubated for 24 hrs by fluorescence assay
[9] = Inhibition of AgrC-3 in Staphylococcus aureus AH1747 incubated for 24 hrs by fluorescence assay
[10] = Inhibition of AgrC-4 in Staphylococcus aureus AH1872 incubated for 24 hrs by fluorescence assay
[11] = system: Staphylococcus aureus; test: Inhibition of AIP biosynthesis in methicillin-resistant Staphylococcus aureus USA300 incubated for 16 hrs by LC-MS analysis; format: functional, organism-based; settings: USA300, 16 h
[12] = system: Staphylococcus aureus; test: Antibacterial activity against methicillin-resistant Staphylococcus aureus infected in BALB/c mouse assessed as reduction in skin ulcer formation at 25 ug, id after 4 days relative to control; format: functional; parameters: scale not given: the % may be the effect or the level left
[13] = system: Staphylococcus aureus; test: Antibacterial activity against methicillin-resistant Staphylococcus aureus infected in BALB/c mouse assessed as reduction in skin ulcer formation at 5 ug, id after 4 days relative to control; format: functional; parameters: scale not given: the % may be the effect or the level left
[14] = Activation of AgrC-1 Staphylococcus epidermidis AH3408 incubated for 24 hrs by fluorescence assay
[15] = Inhibition of AgrC-2 in Staphylococcus aureus RN9372 by beta-lactamase reporter gene assay
[16] = Inhibition of AgrC-2 in Staphylococcus aureus RN9532 by beta-lactamase reporter gene assay
[17] = Agonist activity at AgrC-4 in Staphylococcus aureus RN9371 by beta-lactamase reporter gene assay

**Q.** What does the source list for `CC[C@H](C)[C@H]1NC(=O)[C@@H](Cc2ccccc2)NC(=O)[C@@H](C)NC(=O)[C@H](NC(C)=O)CSC(=O)[C@@H](CCSC)NC1=O`?
**A.** IC50 [1]: 5 nM; IC50 [2]: 5 nM; IC50 [3]: 0.1 nM; IC50 [4]: 5 nM

**Q.** Which IC50 [1] does the source give for `CC[C@H](C)[C@H]1NC(=O)[C@@H](Cc2ccccc2)NC(=O)[C@@H](C)NC(=O)[C@H](NC(=O)[C@H](NC(=O)[C@@H](CO)NC(=O)[C@H](N)Cc2ccc(O)cc2)[C@@H](C)O)CSC(=O)[C@@H](CCSC)NC1=O` here?
**A.** 5 to 303 nM

**Q.** And the IC50 [2]?
**A.** 8 to 18 nM

**Q.** What about the IC50 [3] of the same compound?
**A.** 0.3 nM

**Q.** And the IC50 [4]?
**A.** 3 nM

**Q.** With `CCCCCCc1cc(C(=O)COc2ccc(C(C)C)cc2)c(O)cc1O` as the compound, how does the survival at 30 mg/kg [5] read?
**A.** 100%

**Q.** With `CC(=O)N[C@H]1CSC(=O)[C@@H](CC(C)C)NC(=O)[C@@H](CC(C)C)NC(=O)[C@@H](Cc2ccccc2)NC(=O)[C@@H](CC(=O)O)NC1=O` as the compound, how does the IC50 [6] read?
**A.** 16.8 nM

**Q.** For `CC(C)C[C@H]1NC(=O)[C@@H](Cc2ccccc2)NC(=O)[C@@H](CC(=O)O)NC(=O)[C@@H](NC(=O)[C@@H](Cc2ccccc2)NC(=O)[C@@H]2CCCN2C(=O)[C@H](N)Cc2ccc(O)cc2)CSC(=O)[C@@H](CC(C)C)NC1=O`, which IC50 [6] is on record?
**A.** 0.31 nM

**Q.** For `CC[C@@H](C)[C@H](NC(C)=O)C(=O)N[C@H](CC(N)=O)C(=O)N[C@@H]1CSC(=O)[C@@H](Cc2ccccc2)NC(=O)[C@@H](CC(C)C)NC(=O)[C@@H](CC(C)C)NC(=O)[C@@H](C)NC1=O`, which IC50 [1] is on record?
**A.** 0.5 nM

**Q.** And the IC50 [2]?
**A.** 0.4 nM

**Q.** And the IC50 [3]?
**A.** 0.05 nM

**Q.** What about the IC50 [4] of the same compound?
**A.** 0.03 nM

**Q.** And the IC50 [7]?
**A.** 0.485 to 2.9 nM

**Q.** What about the IC50 [8] of the same compound?
**A.** 0.429 to 3.5 nM

**Q.** What about the IC50 [9] of the same compound?
**A.** 0.0506 to 0.35 nM

**Q.** And the IC50 [10]?
**A.** 0.0349 to 0.75 nM

**Q.** With `CCCCC/C=C/C1=C(CO)[C@@H](O)[C@H]2O[C@@]2(C/C=C(\C)C(=O)O)C1=O` as the compound, how does the IC50 [11] read?
**A.** 2500 nM

**Q.** And the Activity [12]?
**A.** 100%

**Q.** And the Activity [13]?
**A.** 50%

**Q.** For `CC(C)[C@H](NC(=O)[C@H](CO)NC(=O)[C@H](C)N)C(=O)N[C@H]1CSC(=O)[C@H](Cc2ccccc2)NC(=O)[C@H](Cc2ccc(O)cc2)NC(=O)[C@H](C)NC(=O)[C@H](C)NC1=O` (H-ASVCAAYF; thioester 4-C), which EC50 [14] is on record?
**A.** 10.3 nM

**Q.** Which IC50 [15] does the source give for `CC[C@H](C)[C@H](NC(=O)[C@@H](N)CC(=O)O)C(=O)N[C@H]1CSC(=O)[C@H](Cc2ccccc2)NC(=O)[C@H](Cc2ccc(O)cc2)NC(=O)[C@H](C)NC(=O)[C@H](CC(N)=O)NC1=O` (H-DICNAYF; thioester 3-C) here?
**A.** 419 nM

**Q.** What about the IC50 [16] of the same compound?
**A.** 36.6 nM

**Q.** What about the IC50 [17] of the same compound?
**A.** > 1000 nM
